Values of other authors as cited in publication PMC8513935.

Key:
[1] = experimental, compiled by the authors from the literature (the ESI cites the sources)
[2] = derived by the authors as gas->solvent minus gas->water (a hypothetical dry solvent; the ESI), not a two-phase measurement

C1CCCCC1
log K of transfer, gas to solvent ([1]; 1,2-Dichloroethane, 25 C): 2.79 log10 K | log K of transfer, gas to solvent ([1]; 2-Methylpropan-1-ol, 25 C): 2.83 log10 K | log K of transfer, gas to solvent ([1]; 2-Methylpropan-2-ol, 25 C): 2.69 log10 K | log K of transfer, gas to solvent ([1]; Benzene, 25 C): 2.97 log10 K | log K of transfer, gas to solvent ([1]; Butan-1-ol, 25 C): 2.73 log10 K | log K of transfer, gas to solvent ([1]; Butan-2-ol, 25 C): 2.67 log10 K | log K of transfer, gas to solvent ([1]; Butanone, 25 C): 2.75 log10 K | log K of transfer, gas to solvent ([1]; Butyronitrile, 25 C): 2.67 log10 K | log K of transfer, gas to solvent ([1]; CCl4, 25 C): 3.22 log10 K | log K of transfer, gas to solvent ([1]; Chlorobenzene, 25 C): 3.23 log10 K | log K of transfer, gas to solvent ([1]; Chloroform, 25 C): 3.26 log10 K | log K of transfer, gas to solvent ([1]; Cyclohexane, 25 C): 3.25 log10 K | log K of transfer, gas to solvent ([1]; Cyclohexanone, 25 C): 2.81 log10 K | log K of transfer, gas to solvent ([1]; Decan-1-ol, 25 C): 2.5 log10 K | log K of transfer, gas to solvent ([1]; Di-n-butyl ether, 25 C): 3.01 log10 K | log K of transfer, gas to solvent ([1]; Dichloromethane, 25 C): 3.01 log10 K | log K of transfer, gas to solvent ([1]; Diethyl Ether, 25 C): 3.07 log10 K | log K of transfer, gas to solvent ([1]; Ethanol, 25 C): 2.55 log10 K | log K of transfer, gas to solvent ([1]; Heptan-1-ol, 25 C): 2.73 log10 K | log K of transfer, gas to solvent ([1]; Hexadecane, 25 C): 2.96 log10 K | log K of transfer, gas to solvent ([1]; Hexan-1-ol, 25 C): 2.75 log10 K | log K of transfer, gas to solvent ([1]; Hexane, 25 C): 3.1 log10 K | log K of transfer, gas to solvent ([1]; Methanol, 25 C): 2.43 log10 K | log K of transfer, gas to solvent ([1]; Octan-1-ol, 25 C): 2.71 log10 K | log K of transfer, gas to solvent ([1]; Pentan-1-ol, 25 C): 2.72 log10 K | log K of transfer, gas to solvent ([1]; Perfluoroalkane, 25 C): 1.96 log10 K | log K of transfer, gas to solvent ([1]; Propan-1-ol, 25 C): 2.55 log10 K | log K of transfer, gas to solvent ([1]; Propan-2-ol, 25 C): 2.53 log10 K | log K of transfer, gas to solvent ([1]; Propanone, 25 C): 2.6 log10 K | log K of transfer, gas to solvent ([1]; Propionitrile, 25 C): 2.51 log10 K | log K of transfer, gas to solvent ([1]; Tetrahydrofuran, 25 C): 3.13 log10 K | log K of transfer, gas to solvent ([1]; Water, 25 C): -0.9 log10 K | log K of transfer, water to solvent ([2]; 1,2-Dichloroethane, 25 C): 3.69 log10 K | log K of transfer, water to solvent ([2]; 2-Methylpropan-1-ol, 25 C): 3.73 log10 K | log K of transfer, water to solvent ([2]; 2-Methylpropan-2-ol, 25 C): 3.59 log10 K | log K of transfer, water to solvent ([2]; Acetone, 25 C): 3.5 log10 K | log K of transfer, water to solvent ([2]; Benzene, 25 C): 3.87 log10 K | log K of transfer, water to solvent ([2]; Butan-1-ol, 25 C): 3.63 log10 K | log K of transfer, water to solvent ([2]; Butan-2-ol, 25 C): 3.57 log10 K | log K of transfer, water to solvent ([2]; Butanone, 25 C): 3.65 log10 K | log K of transfer, water to solvent ([2]; Butyronitrile, 25 C): 3.57 log10 K | log K of transfer, water to solvent ([2]; CCl4, 25 C): 4.12 log10 K | log K of transfer, water to solvent ([2]; Chlorobenzene, 25 C): 4.13 log10 K | log K of transfer, water to solvent ([2]; Chloroform, 25 C): 4.16 log10 K | log K of transfer, water to solvent ([2]; Cyclohexane, 25 C): 4.15 log10 K | log K of transfer, water to solvent ([2]; Cyclohexanone, 25 C): 3.71 log10 K | log K of transfer, water to solvent ([2]; Decan-1-ol, 25 C): 3.4 log10 K | log K of transfer, water to solvent ([2]; Di-n-butyl ether, 25 C): 3.91 log10 K | log K of transfer, water to solvent ([2]; Dichloromethane, 25 C): 3.91 log10 K | log K of transfer, water to solvent ([2]; Diethyl Ether, 25 C): 3.97 log10 K | log K of transfer, water to solvent ([2]; Ethanol, 25 C): 3.45 log10 K | log K of transfer, water to solvent ([2]; Heptan-1-ol, 25 C): 3.63 log10 K | log K of transfer, water to solvent ([2]; Hexadecane, 25 C): 3.86 log10 K | log K of transfer, water to solvent ([2]; Hexan-1-ol, 25 C): 3.65 log10 K | log K of transfer, water to solvent ([2]; Hexane, 25 C): 4 log10 K | log K of transfer, water to solvent ([2]; Methanol, 25 C): 3.33 log10 K | log K of transfer, water to solvent ([2]; Octan-1-ol(dry), 25 C): 3.61 log10 K | log K of transfer, water to solvent ([2]; Pentan-1-ol, 25 C): 3.62 log10 K | log K of transfer, water to solvent ([2]; Perfluoroalkane, 25 C): 2.86 log10 K | log K of transfer, water to solvent ([2]; Propan-1-ol, 25 C): 3.45 log10 K | log K of transfer, water to solvent ([2]; Propan-2-ol, 25 C): 3.43 log10 K | log K of transfer, water to solvent ([2]; Propionitrile, 25 C): 3.41 log10 K | log K of transfer, water to solvent ([2]; Tetrahydrofuran, 25 C): 4.03 log10 K

CCCCC
log K of transfer, gas to solvent ([1]; 1,2-Dichloroethane, 25 C): 1.99 log10 K | log K of transfer, gas to solvent ([1]; Acetonitrile, 25 C): 1.53 log10 K | log K of transfer, gas to solvent ([1]; Benzene, 25 C): 2.19 log10 K | log K of transfer, gas to solvent ([1]; Butan-1-ol, 25 C): 1.98 log10 K | log K of transfer, gas to solvent ([1]; Butan-2-ol, 25 C): 1.94 log10 K | log K of transfer, gas to solvent ([1]; Butanone, 25 C): 2.07 log10 K | log K of transfer, gas to solvent ([1]; Butyronitrile, 25 C): 1.92 log10 K | log K of transfer, gas to solvent ([1]; CCl4, 25 C): 2.36 log10 K | log K of transfer, gas to solvent ([1]; Chlorobenzene, 25 C): 2.43 log10 K | log K of transfer, gas to solvent ([1]; Chloroform, 25 C): 2.36 log10 K | log K of transfer, gas to solvent ([1]; Cyclohexane, 25 C): 2.57 log10 K | log K of transfer, gas to solvent ([1]; Cyclohexanone, 25 C): 1.98 log10 K | log K of transfer, gas to solvent ([1]; Di-n-butyl ether, 25 C): 2.33 log10 K | log K of transfer, gas to solvent ([1]; Dichloromethane, 25 C): 2.24 log10 K | log K of transfer, gas to solvent ([1]; Ethanol, 25 C): 1.78 log10 K | log K of transfer, gas to solvent ([1]; Heptan-1-ol, 25 C): 1.95 log10 K | log K of transfer, gas to solvent ([1]; Hexadecane, 25 C): 2.16 log10 K | log K of transfer, gas to solvent ([1]; Hexan-1-ol, 25 C): 1.97 log10 K | log K of transfer, gas to solvent ([1]; Hexane, 25 C): 2.44 log10 K | log K of transfer, gas to solvent ([1]; Methanol, 25 C): 1.66 log10 K | log K of transfer, gas to solvent ([1]; Octan-1-ol, 25 C): 1.95 log10 K | log K of transfer, gas to solvent ([1]; Pentan-1-ol, 25 C): 1.94 log10 K | log K of transfer, gas to solvent ([1]; Perfluoroalkane, 25 C): 1.55 log10 K | log K of transfer, gas to solvent ([1]; Propan-1-ol, 25 C): 1.81 log10 K | log K of transfer, gas to solvent ([1]; Propan-2-ol, 25 C): 1.85 log10 K | log K of transfer, gas to solvent ([1]; Propanone, 25 C): 1.98 log10 K | log K of transfer, gas to solvent ([1]; Tetrahydrofuran, 25 C): 2.33 log10 K | log K of transfer, gas to solvent ([1]; Toluene, 25 C): 2.3 log10 K | log K of transfer, gas to solvent ([1]; Water, 25 C): -1.7 log10 K | log K of transfer, water to solvent ([2]; 1,2-Dichloroethane, 25 C): 3.69 log10 K | log K of transfer, water to solvent ([2]; Acetone, 25 C): 3.68 log10 K | log K of transfer, water to solvent ([2]; Acetonitrile, 25 C): 3.23 log10 K | log K of transfer, water to solvent ([2]; Benzene, 25 C): 3.89 log10 K | log K of transfer, water to solvent ([2]; Butan-1-ol, 25 C): 3.68 log10 K | log K of transfer, water to solvent ([2]; Butan-2-ol, 25 C): 3.64 log10 K | log K of transfer, water to solvent ([2]; Butanone, 25 C): 3.77 log10 K | log K of transfer, water to solvent ([2]; Butyronitrile, 25 C): 3.62 log10 K | log K of transfer, water to solvent ([2]; CCl4, 25 C): 4.06 log10 K | log K of transfer, water to solvent ([2]; Chlorobenzene, 25 C): 4.13 log10 K | log K of transfer, water to solvent ([2]; Chloroform, 25 C): 4.06 log10 K | log K of transfer, water to solvent ([2]; Cyclohexane, 25 C): 4.27 log10 K | log K of transfer, water to solvent ([2]; Cyclohexanone, 25 C): 3.68 log10 K | log K of transfer, water to solvent ([2]; Di-n-butyl ether, 25 C): 4.03 log10 K | log K of transfer, water to solvent ([2]; Dichloromethane, 25 C): 3.94 log10 K | log K of transfer, water to solvent ([2]; Ethanol, 25 C): 3.48 log10 K | log K of transfer, water to solvent ([2]; Heptan-1-ol, 25 C): 3.65 log10 K | log K of transfer, water to solvent ([2]; Hexadecane, 25 C): 3.86 log10 K | log K of transfer, water to solvent ([2]; Hexan-1-ol, 25 C): 3.67 log10 K | log K of transfer, water to solvent ([2]; Hexane, 25 C): 4.14 log10 K | log K of transfer, water to solvent ([2]; Methanol, 25 C): 3.36 log10 K | log K of transfer, water to solvent ([2]; Octan-1-ol(dry), 25 C): 3.65 log10 K | log K of transfer, water to solvent ([2]; Pentan-1-ol, 25 C): 3.64 log10 K | log K of transfer, water to solvent ([2]; Perfluoroalkane, 25 C): 3.25 log10 K | log K of transfer, water to solvent ([2]; Propan-1-ol, 25 C): 3.51 log10 K | log K of transfer, water to solvent ([2]; Propan-2-ol, 25 C): 3.55 log10 K | log K of transfer, water to solvent ([2]; Tetrahydrofuran, 25 C): 4.03 log10 K | log K of transfer, water to solvent ([2]; Toluene, 25 C): 4.01 log10 K
